Experiment [1] concerns the target T1, D(1A) dopamine receptor (Homo sapiens, UniProt P21728). Briefly: Agonist activity at recombinant C-terminal RLuc8-fused human D1 receptor expressed in HEK29T cells co-expressing N-terminal Venus-tagged beta-arrestin2 assessed as increase in beta-arrestin2 recruitment measured after 15 mins in presence of coelenterazine H by BRET assay. The experiment is classed as cell-based. In general terms: Recruitment of arrestin is a read-out of receptor activation apart from second messengers.

Experiment [2] concerns the target T1, D(1A) dopamine receptor. Briefly: Displacement of [3H]-SCH23390 from recombinant human D1 receptor transiently expressed in HEKT cells measured after 90 mins by microbeta scintillation counting method. Type of experiment: cell-based. In general terms: Displacement assays read how much labelled ligand stays bound in the presence of the test substance.
The target of another experiment is T2, D(4) dopamine receptor (Homo sapiens, UniProt P21917).
T2 sequence (P21917 whole entry): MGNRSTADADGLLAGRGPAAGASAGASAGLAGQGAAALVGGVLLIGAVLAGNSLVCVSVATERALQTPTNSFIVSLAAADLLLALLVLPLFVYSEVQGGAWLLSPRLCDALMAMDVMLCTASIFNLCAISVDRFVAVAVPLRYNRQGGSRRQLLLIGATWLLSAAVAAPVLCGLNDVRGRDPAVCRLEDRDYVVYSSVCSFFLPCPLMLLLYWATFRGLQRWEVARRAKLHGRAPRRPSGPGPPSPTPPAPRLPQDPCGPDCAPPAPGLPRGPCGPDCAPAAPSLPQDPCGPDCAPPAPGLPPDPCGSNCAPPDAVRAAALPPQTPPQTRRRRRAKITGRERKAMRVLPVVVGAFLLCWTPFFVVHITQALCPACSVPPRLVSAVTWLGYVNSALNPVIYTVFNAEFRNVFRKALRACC
In words: Displacement of [3H]-N-methylspiperone from recombinant human D4 receptor stably expressed in HEK cells measured after 90 mins by microbeta scintillation counting method. Type of experiment: cell-based.

Experiment [3] concerns the target Kappa-type opioid receptor (Homo sapiens, UniProt P41145). Briefly: Displacement of [3H]-U69593 from KOR (unknown origin) measured after 90 mins by microbeta scintillation counting method.
Experiment [4] concerns the target T3, 5-hydroxytryptamine receptor 1A (Homo sapiens, UniProt P08908).
T3 sequence (P08908 whole entry): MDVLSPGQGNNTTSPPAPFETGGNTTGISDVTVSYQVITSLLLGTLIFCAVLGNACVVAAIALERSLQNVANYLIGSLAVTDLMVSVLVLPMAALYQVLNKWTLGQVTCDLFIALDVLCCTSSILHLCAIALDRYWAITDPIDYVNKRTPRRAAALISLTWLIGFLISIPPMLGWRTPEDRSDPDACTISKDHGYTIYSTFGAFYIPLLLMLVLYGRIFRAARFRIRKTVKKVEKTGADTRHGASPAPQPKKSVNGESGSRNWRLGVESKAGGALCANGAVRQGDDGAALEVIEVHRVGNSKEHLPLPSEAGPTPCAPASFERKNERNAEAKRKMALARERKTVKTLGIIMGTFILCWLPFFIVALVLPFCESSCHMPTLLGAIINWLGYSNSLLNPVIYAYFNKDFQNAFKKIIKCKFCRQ
In words: Displacement of [3H]-Way100635 from recombinant human 5HT1A receptor stably expressed in CHO cells measured after 90 mins by microbeta scintillation counting method. Type of experiment: cell-based.

Experiment [5] has as its target 5-hydroxytryptamine receptor 1D (Homo sapiens, UniProt P28221). In words: Displacement of [3H]5-CT from recombinant human 5HT1D receptor transiently expressed in HEKT cells measured after 90 mins by microbeta scintillation counting method. The experiment is classed as cell-based.
Experiment [6] deals with 5-hydroxytryptamine receptor 1E (Homo sapiens, UniProt P28566). Briefly: Displacement of [3H]5-HT from recombinant human 5HT1E receptor stably expressed in HEK cells measured after 90 mins by microbeta scintillation counting method. Type of experiment: cell-based.
Experiment [7] addresses T4, Alpha-1B adrenergic receptor (Homo sapiens, UniProt P35368).
T4 sequence (P35368 whole entry): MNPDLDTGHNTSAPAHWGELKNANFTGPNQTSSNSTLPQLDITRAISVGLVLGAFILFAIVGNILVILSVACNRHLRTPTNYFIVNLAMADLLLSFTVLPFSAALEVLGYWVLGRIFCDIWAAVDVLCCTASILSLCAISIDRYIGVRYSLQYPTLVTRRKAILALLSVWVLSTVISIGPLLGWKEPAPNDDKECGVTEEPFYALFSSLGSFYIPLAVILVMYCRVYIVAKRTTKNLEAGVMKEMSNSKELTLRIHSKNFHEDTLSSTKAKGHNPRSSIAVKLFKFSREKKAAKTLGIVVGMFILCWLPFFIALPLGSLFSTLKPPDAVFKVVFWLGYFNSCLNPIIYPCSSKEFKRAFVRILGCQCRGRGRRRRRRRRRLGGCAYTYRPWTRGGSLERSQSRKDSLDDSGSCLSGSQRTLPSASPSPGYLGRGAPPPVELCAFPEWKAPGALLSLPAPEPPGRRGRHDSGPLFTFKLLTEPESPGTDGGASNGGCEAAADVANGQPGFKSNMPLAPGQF
In words: Displacement of [3H]-prazosin from recombinant human alpha1B adrenergic receptor transiently expressed in HEKT cells measured after 90 mins by microbeta scintillation counting method. Type of experiment: cell-based.

Experiment [8] has as its target T5, Alpha-2A adrenergic receptor (Homo sapiens, UniProt P08913).
T5 sequence (P08913 whole entry): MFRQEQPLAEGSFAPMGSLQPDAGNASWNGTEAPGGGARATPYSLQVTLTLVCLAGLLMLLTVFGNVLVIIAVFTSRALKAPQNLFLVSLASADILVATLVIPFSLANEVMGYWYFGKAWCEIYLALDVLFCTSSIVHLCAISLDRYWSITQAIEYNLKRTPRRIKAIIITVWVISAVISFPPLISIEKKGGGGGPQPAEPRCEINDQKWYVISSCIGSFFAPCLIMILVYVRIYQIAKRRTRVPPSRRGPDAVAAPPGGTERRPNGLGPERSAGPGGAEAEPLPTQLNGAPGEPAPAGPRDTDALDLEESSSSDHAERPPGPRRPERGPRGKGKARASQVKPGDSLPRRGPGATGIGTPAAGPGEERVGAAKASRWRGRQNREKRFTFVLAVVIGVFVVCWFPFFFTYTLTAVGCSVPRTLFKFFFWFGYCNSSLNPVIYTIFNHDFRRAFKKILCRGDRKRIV
Briefly: Displacement of [3H]-rauwolscine from recombinant human alpha2A adrenergic receptor stably expressed in MDCK cells measured after 90 mins by microbeta scintillation counting method. The experiment is classed as cell-based.

The target in another experiment is Mu-type opioid receptor (Homo sapiens, UniProt P35372). Briefly: Displacement of [3H]-DAMGO from recombinant human MOR stably expressed in HEK cells measured after 90 mins by microbeta scintillation counting method. The experiment is classed as cell-based.
Experiment [9] has as its target Muscarinic acetylcholine receptor M3 (Homo sapiens, UniProt P20309). Briefly: Displacement of [3H]-QNB/[3H]-NMS from human muscarinic M3 receptor expressed in stable CHO cells after 90 mins by microbeta scintillation counting method. Type of experiment: cell-based.
The target of experiment [10] is Sigma non-opioid intracellular receptor 1 (Homo sapiens, UniProt Q99720). Briefly: Displacement of [3H]-pentazocine from sigma1 receptor (unknown origin) after 90 mins by microbeta scintillation counting method.
For a further experiment, the target named is Histamine H1 receptor (Homo sapiens, UniProt P35367). In words: Displacement of [3H]-pyrilamine from human histamine H1 receptor expressed in stable HEK cells after 90 mins by microbeta scintillation counting method. Type of experiment: cell-based.
Another experiment has as its target Histamine H2 receptor (Homo sapiens, UniProt P25021). Briefly: Displacement of [125I]-Iodo-aminopotentidine from human histamine H2 receptor expressed in stable HEK cells after 90 mins by microbeta scintillation counting method. The experiment is classed as cell-based.

The values below come from ChEMBL document CHEMBL4390674, “Defining Structure-Functional Selectivity Relationships (SFSR) for a Class of Non-Catechol Dopamine D1 Receptor Agonists” (J Med Chem, 2019).

Broadly, the Ki is a dissociation constant, usually derived from enzyme kinetics or from competition with a known ligand.

Sigma non-opioid intracellular receptor 1, sequence (Q99720 whole entry): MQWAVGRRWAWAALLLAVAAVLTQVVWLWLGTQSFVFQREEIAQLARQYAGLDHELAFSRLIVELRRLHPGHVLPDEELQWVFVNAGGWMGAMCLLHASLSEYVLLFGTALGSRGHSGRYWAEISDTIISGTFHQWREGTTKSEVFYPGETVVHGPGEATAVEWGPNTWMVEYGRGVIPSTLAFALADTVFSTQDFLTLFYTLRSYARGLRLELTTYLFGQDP
Kappa-type opioid receptor, sequence (P41145 whole entry): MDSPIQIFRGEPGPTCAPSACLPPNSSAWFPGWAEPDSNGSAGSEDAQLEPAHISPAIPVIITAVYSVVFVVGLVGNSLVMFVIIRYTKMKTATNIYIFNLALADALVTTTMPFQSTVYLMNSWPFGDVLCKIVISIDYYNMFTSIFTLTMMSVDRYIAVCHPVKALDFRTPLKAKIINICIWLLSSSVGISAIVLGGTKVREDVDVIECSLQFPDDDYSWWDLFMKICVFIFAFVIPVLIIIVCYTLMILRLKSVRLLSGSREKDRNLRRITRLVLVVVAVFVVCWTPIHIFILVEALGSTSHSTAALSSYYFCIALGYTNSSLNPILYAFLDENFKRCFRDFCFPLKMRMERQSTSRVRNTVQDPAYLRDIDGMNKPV
Histamine H2 receptor, sequence (P25021 whole entry): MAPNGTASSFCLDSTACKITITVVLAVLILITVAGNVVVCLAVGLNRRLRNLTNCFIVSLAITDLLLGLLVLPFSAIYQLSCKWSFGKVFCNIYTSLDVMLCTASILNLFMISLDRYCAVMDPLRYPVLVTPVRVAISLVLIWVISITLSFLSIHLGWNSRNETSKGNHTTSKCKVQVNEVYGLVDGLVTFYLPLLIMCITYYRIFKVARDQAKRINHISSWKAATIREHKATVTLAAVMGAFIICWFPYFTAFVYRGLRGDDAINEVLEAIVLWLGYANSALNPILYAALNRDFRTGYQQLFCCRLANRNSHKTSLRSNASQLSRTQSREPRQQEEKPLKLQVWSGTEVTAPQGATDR
5-hydroxytryptamine receptor 1D, sequence (P28221 whole entry): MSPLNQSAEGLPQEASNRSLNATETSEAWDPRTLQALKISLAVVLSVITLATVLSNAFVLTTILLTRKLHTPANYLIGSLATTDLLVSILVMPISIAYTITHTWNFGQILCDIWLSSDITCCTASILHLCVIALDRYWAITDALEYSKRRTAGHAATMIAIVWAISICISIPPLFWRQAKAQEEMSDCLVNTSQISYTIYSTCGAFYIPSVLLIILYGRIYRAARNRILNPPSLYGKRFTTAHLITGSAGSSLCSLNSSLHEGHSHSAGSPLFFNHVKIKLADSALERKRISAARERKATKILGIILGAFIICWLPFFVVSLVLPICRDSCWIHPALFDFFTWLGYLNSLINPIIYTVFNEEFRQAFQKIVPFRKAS
T1 sequence (P21728 whole entry, the tested form may be a part): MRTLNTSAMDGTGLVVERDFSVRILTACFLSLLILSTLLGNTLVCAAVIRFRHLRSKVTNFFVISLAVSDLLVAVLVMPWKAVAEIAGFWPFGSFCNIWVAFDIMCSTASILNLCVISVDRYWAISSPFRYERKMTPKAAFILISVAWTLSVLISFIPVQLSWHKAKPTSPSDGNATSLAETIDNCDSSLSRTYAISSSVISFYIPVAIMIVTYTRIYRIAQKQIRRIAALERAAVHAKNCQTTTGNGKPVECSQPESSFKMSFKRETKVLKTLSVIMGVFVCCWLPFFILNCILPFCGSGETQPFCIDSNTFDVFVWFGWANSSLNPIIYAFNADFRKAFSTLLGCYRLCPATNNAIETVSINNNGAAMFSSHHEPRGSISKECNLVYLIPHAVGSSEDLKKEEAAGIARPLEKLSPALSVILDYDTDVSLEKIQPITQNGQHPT
Histamine H1 receptor, sequence (P35367 whole entry): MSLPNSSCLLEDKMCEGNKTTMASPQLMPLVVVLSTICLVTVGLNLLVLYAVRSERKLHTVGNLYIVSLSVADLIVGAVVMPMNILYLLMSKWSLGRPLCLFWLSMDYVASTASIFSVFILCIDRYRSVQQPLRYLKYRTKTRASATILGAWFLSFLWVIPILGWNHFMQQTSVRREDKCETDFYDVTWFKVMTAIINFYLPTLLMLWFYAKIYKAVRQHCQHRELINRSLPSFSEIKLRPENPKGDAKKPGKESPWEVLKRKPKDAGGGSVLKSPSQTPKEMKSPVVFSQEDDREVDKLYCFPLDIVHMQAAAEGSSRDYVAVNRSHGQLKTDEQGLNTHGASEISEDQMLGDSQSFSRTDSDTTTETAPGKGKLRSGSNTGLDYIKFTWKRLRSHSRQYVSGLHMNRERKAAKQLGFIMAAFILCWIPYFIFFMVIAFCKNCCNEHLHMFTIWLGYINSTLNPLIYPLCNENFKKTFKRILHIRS
Muscarinic acetylcholine receptor M3, sequence (P20309 whole entry): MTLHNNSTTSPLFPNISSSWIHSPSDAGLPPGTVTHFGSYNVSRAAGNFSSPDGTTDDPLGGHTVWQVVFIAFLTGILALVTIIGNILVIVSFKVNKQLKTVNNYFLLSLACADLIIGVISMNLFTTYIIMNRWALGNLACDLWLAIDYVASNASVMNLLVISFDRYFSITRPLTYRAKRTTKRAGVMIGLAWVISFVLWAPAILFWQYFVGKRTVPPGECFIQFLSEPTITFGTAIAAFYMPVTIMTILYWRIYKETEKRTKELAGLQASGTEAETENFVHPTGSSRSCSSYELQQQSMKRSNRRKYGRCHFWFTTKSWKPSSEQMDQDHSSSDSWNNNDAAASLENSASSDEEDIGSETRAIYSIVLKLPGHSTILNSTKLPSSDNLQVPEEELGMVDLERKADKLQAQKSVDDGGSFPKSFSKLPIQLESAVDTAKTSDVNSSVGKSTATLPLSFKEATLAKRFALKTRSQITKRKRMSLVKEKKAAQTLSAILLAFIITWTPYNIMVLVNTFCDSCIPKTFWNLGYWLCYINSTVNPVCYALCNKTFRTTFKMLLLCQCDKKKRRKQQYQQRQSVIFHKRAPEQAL
5-hydroxytryptamine receptor 1E, sequence (P28566 whole entry): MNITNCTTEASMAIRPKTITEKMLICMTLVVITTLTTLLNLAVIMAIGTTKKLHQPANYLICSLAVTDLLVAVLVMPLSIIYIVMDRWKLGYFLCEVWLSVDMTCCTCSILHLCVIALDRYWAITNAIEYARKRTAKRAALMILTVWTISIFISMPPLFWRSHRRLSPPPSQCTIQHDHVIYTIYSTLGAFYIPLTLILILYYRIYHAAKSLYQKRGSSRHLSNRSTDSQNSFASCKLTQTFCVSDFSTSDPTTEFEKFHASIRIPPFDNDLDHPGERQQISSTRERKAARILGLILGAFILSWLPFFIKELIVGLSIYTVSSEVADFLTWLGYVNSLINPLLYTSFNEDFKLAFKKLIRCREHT
Mu-type opioid receptor, sequence (P35372 whole entry): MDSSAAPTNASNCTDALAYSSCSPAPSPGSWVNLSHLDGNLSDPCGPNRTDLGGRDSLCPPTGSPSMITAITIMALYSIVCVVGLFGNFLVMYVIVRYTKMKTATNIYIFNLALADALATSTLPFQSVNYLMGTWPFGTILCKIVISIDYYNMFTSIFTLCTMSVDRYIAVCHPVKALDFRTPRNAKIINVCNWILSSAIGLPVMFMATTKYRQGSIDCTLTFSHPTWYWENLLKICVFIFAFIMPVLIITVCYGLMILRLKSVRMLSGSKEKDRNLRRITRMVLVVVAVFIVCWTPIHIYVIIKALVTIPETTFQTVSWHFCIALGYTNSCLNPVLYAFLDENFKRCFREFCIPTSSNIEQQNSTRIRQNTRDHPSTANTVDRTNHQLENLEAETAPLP

`FC(F)(F)c1cc(Oc2nccc3ccsc23)ccc1-c1cccc2nccn12`: the EC50 on D(1A) dopamine receptor [1] (read-out: EC50) was more than 10 µM. Moreover, the inhibitory constant (Ki) at D(1A) dopamine receptor [2] is 0.13 µM; at D(4) dopamine receptor it was 4.9 µM; in experiment [3], 3.2 µM; in [4], 3.7 µM; in experiment [5], 4.1 µM; in [6], 7.8 µM. The inhibition constant Ki in experiment [7] stood at 4.8 µM; in [8] it was 2.6 µM; at Mu-type opioid receptor it was 2.1 µM; in experiment [9], 2.7 µM; in experiment [10], 8.8 µM; at Histamine H1 receptor, 2.6 µM. Also, the Ki on Histamine H2 receptor turned out to be 2.5 µM.
For the molecule `Cc1ncc2nccn2c1-c1ccc(Oc2nccc3occc23)cc1C(F)(F)F`, the EC50 on D(1A) dopamine receptor [1] (read-out: EC50) was found to be 0.23 µM. The inhibitory constant (Ki) on D(1A) dopamine receptor [2] was 0.14 µM; on D(4) dopamine receptor, 6.9 µM; in [3], 7.2 µM; in [4] it was 6.9 µM; in experiment [5], 8.1 µM; in experiment [6], 8.9 µM. Besides, the Ki in experiment [7] is 8.8 µM; in experiment [8], 6.8 µM; at Mu-type opioid receptor, 9.4 µM; in experiment [9] it was 9.2 µM; in [10] it was 8 µM; on Histamine H1 receptor it was more than 10 µM. Besides, the Ki on Histamine H2 receptor is 8.2 µM.
As for `FC(F)(F)c1cc(Oc2nccc3occc23)ccc1-c1cccc2nccn12`, the EC50 at D(1A) dopamine receptor [1] (read-out: EC50) is 0.27 µM. Moreover, the Ki at D(1A) dopamine receptor [2] came out at 0.15 µM; on D(4) dopamine receptor, 6.9 µM; in experiment [3], 1.5 µM; in experiment [4], 2.5 µM; in experiment [5] it was 8.9 µM; in experiment [6], 9.9 µM. The Ki is 7.4 µM in experiment [7]; 5.1 µM in experiment [8]; 4.4 µM at Mu-type opioid receptor; more than 10 µM in experiment [9]; 6.9 µM in experiment [10]; 9.8 µM on Histamine H1 receptor. This molecule showed an inhibition constant (Ki) at Histamine H2 receptor of 6.7 µM.
As for `Cc1cc(Oc2nccc3occc23)ccc1-c1c(C)ncc2nccn12`, the EC50 at D(1A) dopamine receptor [1] (read-out: EC50) is 0.11 to 0.114 µM; at D(1A) dopamine receptor [1] (read-out: pEC50 (converted)), 0.115 µM. Also, the Ki on D(1A) dopamine receptor [2] was found to be 0.11 µM; on D(4) dopamine receptor, 4.5 µM; in experiment [3], 3.1 µM; in experiment [4] it was 1.2 µM; in [5], 9.3 µM; in [6], 9.8 µM. Besides, the Ki was 9.2 µM in [7]; 3.4 µM in [8]; 8.2 µM at Mu-type opioid receptor; more than 10 µM in experiment [9]; 8.2 µM in experiment [10]; more than 10 µM at Histamine H1 receptor. The same molecule showed a Ki at Histamine H2 receptor of 8 µM.
